Source: ChEMBL document CHEMBL4673247, “Mycophenolic anilides as broad specificity inosine-5'-monophosphate dehydrogenase (IMPDH) inhibitors” (Bioorg Med Chem Lett, 2020)

What was measured:
[1] = target: Inosine-5'-monophosphate dehydrogenase 2 (Homo sapiens, UniProt P12268); test: Inhibition of human IMPDH2 expressed in Escherichia coli assessed as apparent inhibition constant using NAD as substrate by fluorescence assay; conditions: read-out: Ki(app)
[2] = target: T1, Inosine-5'-monophosphate dehydrogenase (Cryptosporidium parvum, UniProt Q8T6T2); test: Inhibition of Cryptosporidium parvum IMPDH expressed in Escherichia coli assessed as apparent inhibition constant using NAD as substrate by fluorescence assay; conditions: read-out: Ki(app)
T1 sequence (Q8T6T2 whole entry): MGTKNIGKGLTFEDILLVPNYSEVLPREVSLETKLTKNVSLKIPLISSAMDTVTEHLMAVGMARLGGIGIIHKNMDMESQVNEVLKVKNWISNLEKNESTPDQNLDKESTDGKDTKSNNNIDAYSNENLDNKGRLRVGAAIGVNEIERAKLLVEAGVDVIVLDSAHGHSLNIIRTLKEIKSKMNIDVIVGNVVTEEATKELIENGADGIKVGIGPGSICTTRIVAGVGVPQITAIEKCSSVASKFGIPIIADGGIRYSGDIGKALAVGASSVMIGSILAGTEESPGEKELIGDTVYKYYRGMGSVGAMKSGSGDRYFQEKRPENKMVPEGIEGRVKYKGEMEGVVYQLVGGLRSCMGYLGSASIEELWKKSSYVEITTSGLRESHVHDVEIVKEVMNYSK

Compound	Ki [1]	Ki [2]
COc1c(C)c2c(c(O)c1C/C=C(\C)CCC(=O)Nc1ccc(Cl)cc1)C(=O)OC2	130 nM	42 nM
COc1c(C)c2c(c(O)c1CCC(C)CCC(=O)Nc1ccc(Cl)c(C(F)(F)F)c1)C(=O)OC2 (stereo not given)		60 nM
COc1c(C)c2c(c(O)c1C/C=C(\C)CCC(=O)Nc1ccc(Cl)c(C(F)(F)F)c1)C(=O)OC2	230 nM	16 nM
COc1c(C)c2c(c(O)c1C/C=C(\C)CCC(=O)N(C)c1ccc(Cl)cc1)C(=O)OC2		870 nM
COc1c(C)c2c(c(O)c1C/C=C(\C)CCC(=O)Nc1ccc(C#N)cc1)C(=O)OC2	350 nM	110 nM
COc1c(C)c2c(c(O)c1C/C=C(\C)CCC(=O)Nc1ccc(Cl)c(Cl)c1)C(=O)OC2	340 nM	41 nM
COc1cc(NC(=O)CC/C(C)=C/Cc2c(O)c3c(c(C)c2OC)COC3=O)ccc1Cl	350 nM	46 nM
COc1c(C)c2c(c(O)c1C/C=C(\C)CCC(=O)Nc1ccc(C(F)(F)F)cc1)C(=O)OC2	400 nM	
COc1c(C)c2c(c(O)c1C/C=C(\C)CCC(=O)Nc1ccc(F)cc1)C(=O)OC2	270 nM	
COc1c(C)c2c(c(OC)c1C/C=C(\C)CCC(=O)Nc1ccc(Cl)c(C(F)(F)F)c1)C(=O)OC2		1700 nM
